“Also recorded” adds a separate entry of the source.

The record followed here is paper PMC8400257, “2-Phenoxy-3-Trichloromethylquinoxalines Are Antiplasmodial Derivatives with Activity against the Apicoplast of Plasmodium falciparum” (Pharmaceuticals, 2021).

Data set [1] has as its system primary human hepatocytes. Briefly: Hepatotoxicity by count of DAPI-stained hepatocyte nuclei. The format is cell-based. Particulars: dose range up to 30 µM. The protocol:
Finally, we studied the hepatotoxicity of (3i). This was carried out by quantification of DAPI-stained hepatocyte nuclei in culture wells. Generally, if a drug is hepatotoxic, it causes death and detachment of hepatocytes leading to less hepatocyte nuclei counts.
Upon immunostaining of parasites, the study plates were scanned using a CellInsight high-content screening platform equipped with the Studio HCS software (Thermo Fisher Scientific, Waltham, MA, USA). The details of analysis is provided elsewhere. The number of host hepatocyte nuclei per well was counted by the system as a measure of toxicity of 3i towards the liver cells.

Data set [2] has as its system P. falciparum ART-sensitive strain F32-TEM. Kind of data set: Standard in vitro chemo-sensitivity assay, F32-TEM. Particulars: Plasmodium falciparum, F32, 48 h, read-out: Mean ± SEM EC50 values F32-TEM. The format is cell-based. As for the experimental part: (§1) The Plasmodium falciparum ART-resistant strain F32-ART5 and its tween ART-sensitive strain F32-TEM [33, 41] were cultivated at 37 °C with 5% CO2 in human red blood cells (EFS, French Blood Bank) diluted to 2% hematocrit in RPMI-1640 medium (Biowest, Nuaillé, France) supplemented with 5% human serum (EFS, French Blood Bank), as previously reported.
(§2) The chemosensitivity assay was carried out in 96-well culture plates on synchronized ring-stage parasites at 1% parasitemia obtained after D-sorbitol treatment. The antiplasmodial activities were evaluated using the SYBR Green I method. Parasites were exposed for 48 h to a range of concentrations of the different tested compounds. Each drug concentration was tested in triplicates. Parasite pellets were then washed in 1× PBS prior to lysing red blood cells at −20 °C overnight. Then, the plates were thawed and 100 µL of each well were transferred into a black 96-well plate. Next, 100 µL per well of SYBR Green I (Thermo Fisher) diluted at a final concentration of 2× in lysis buffer (20 mM Tris base pH 7.5, 5 mM EDTA, 0.008% w/v saponin, 0.08% w/v Triton X-100) were added and left to incubate for 1 h at room temperature prior to reading the plates on BioTek FLx800 Microplate Fluorescence Reader (λexcitation = 485 nm, λemission = 528 nm). Relative EC50 values were determined using GraphPad Prism software.

In data set [3] the test system is P. falciparum (NF135 strain) hepatic exoerythrocytic forms. Kind of data set: Liver stage development in infected primary human hepatocytes. The format is cell-based, Plasmodium falciparum. The protocol: The effect of (3i) on the hepatic stage of P. falciparum was next studied in order to know if (3i) was active against another stage of P. falciparum cycle. Cryopreserved primary human hepatocytes were infected with 30,000 freshly extracted P. falciparum sporozoites and simultaneously treated with a dose range (0.9–30 µM) of (3i). Atovaquone (ATQ) was used as a positive parasite-killing control at 25 nM.
P. falciparum (NF135 strain) sporozoites were isolated by dissection of the salivary glands of infected A. stephensi 14–21 days after an infective blood meal (Department of medical microbiology, University Medical Centre, St Radboud, Nijmegen Netherland). All infected salivary glands were removed by hand dissection, crushed in a potter for sporozoites isolation, and filtrated through a 40 μm filter to remove mosquito debris (Cell Strainer, BD BioSciences, Franklin Lakes, NJ, USA). The sporozoites were counted using a disposable Glasstic microscope slide (KOVA, Garden Grove, CA, USA).
One day before hepatocyte thawing, 96-well plates were coated by a Corning®® collagen solution (50 µg/mL rat tail type I collagen in 0.02N acid acetic) over night at room temperature. The next day, the wells were washed twice by PBS solution. Cryopreserved primary human hepatocytes (LONZA, Basel, Swiss) were seeded in 96-well plates with a pre-determined seeding dose that gave a single dense layer of attached hepatocytes. Four days post-seeding, each plate well was infected with 30,000 freshly extracted Plasmodium falciparum sporozoites. […]
Hepatocyte cultures were fixed with 4% paraformaldehyde solution (PFA, Invitrogen) for 10 min. […] Images were analyzed and prepared with ImageJ software. Apicoplast morphology was observed and quantified by eye under a confocal microscope.
Upon immunostaining of parasites, the study plates were scanned using a CellInsight high-content screening platform equipped with the Studio HCS software (Thermo Fisher Scientific, Waltham, MA, USA). […] The number of host hepatocyte nuclei per well was counted by the system as a measure of toxicity of 3i towards the liver cells. […]

For data set [4], the system named is P. falciparum ART-resistant strain F32-ART5. Briefly: Standard in vitro chemo-sensitivity assay, F32-ART5. It counts as cell-based. Particulars: Plasmodium falciparum, F32, 48 h, read-out: Mean ± SEM EC50 values F32-ART5. As for the experimental part:
as §1, §2

As for `O=[N+]([O-])c1ccc(Oc2nc3ccccc3nc2C(Cl)(Cl)Cl)cc1` [3i, 2-(4-Nitrophenoxy)-3-trichloromethylquinoxaline], in data set [1], the “Cytotoxicity on human hepatocytes (hepatocyte nuclei counts)” value is listed as “no cytotoxicity on human hepatocytes; also recorded: no cytotoxicity was observed”. The 50% effective concentration (EC50) came to 0.392 ± 0.034 µM in data set [2] and 0.4 ± 0.105 µM in data set [4]. Also, the “Effect on exoerythrocytic forms (EEF or schizont) size and numbers” value in data set [3] (3i 0.9-30 µM, ATQ 25 nM, 6 or 12 days post-infection) was “not observe a significant effect on parasite growth; also recorded: no effect”. Besides, the “Effect on the apicoplast in the hepatic stage” value in data set [3] (up to 30 µM, day 6 post-infection) is listed as “quite not affected”.

Usually EC50 stands for the concentration needed to bring the measured effect to its halfway point.
